In patent US11524960B2, “Heterobicyclic inhibitors of MAT2A and methods of use for treating cancer” (AGIOS PHARMACEUTICALS, INC., priority 2018, dated 2022):

Key:
[1] = test system: HCT116 MTAP−/−; assay: Inhibition of cellular proliferation (Cell Titer Glo), HCT116 MTAP−/−; type: cell-based, human; conditions: Homo sapiens, HCT-116, 96 h, 4 days, IC50 score, read-out: 4 Day Relative Growth Inhibition (MTAP −/−; Example 277)
Outline: (§1)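 Proliferation was read as ATP luminescence (Cell Titer Glo) after a 4-day, 37 °C exposure of HCT116 cells differing only in MTAP deletion status. Dosing was 10 points, 3-fold steps, added 24 h post-plating; signal minus blank, relative to 0.2% DMSO control wells, was plotted against log molar concentration.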

[2] = target: T1, MAT2A homodimer (Homo sapiens, UniProt P31153); assay: Biochemical assay: inhibition of MAT2A (phosphate release, PiColorLock Gold); conditions: MAT2A IC50 score; read-out: Enzyme Inhibition (Example 275)
T1 construct: inferred from Ni sepharose purification and imidazole elution; made in house; host or cells: Sf9 insect cells, recombinant baculovirus (Bac to Bac, pFASTBAC1)
Outline: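 Phosphate formed alongside SAM was read with PiColorLock Gold and quantified against a potassium phosphate standard curve. Reactions ran 60 min at 25 °C after adding a substrate mix of 500 μM ATP and 400 μM L-methionine (mix concentrations). Compound had first been preincubated 60 min with recombinant Sf9-derived MAT2A homodimer ([…]) in pH 8.0 Tris buffer containing MgCl2, KCl, EDTA and BSA.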

[3] = test system: SAM in HCT116 human colon carcinoma cell line engineered to delete the MTAP gene (MTAP −/−); assay: Cellular assay of target engagement (SAM) by LC-MS/MS; type: cell-based; conditions: Homo sapiens, HCT-116, 72 h, IC50 score, read-out: Cell 72 h SAM Inhibition (MTAP −/−; Example 276)
Outline: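 Intracellular SAM, the MAT2A product, was measured by quantitative LC-MS/MS against a d3-SAM standard in methanol/acetic acid extracts. Extracts came from HCT116 MTAP −/− cells exposed for 72 h at 37 °C to a ten-point, threefold dilution series of compound, added one day after seeding.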

[4] = test system: HCT116 MTAP+/+; assay: Inhibition of cellular proliferation (Cell Titer Glo), HCT116 MTAP+/+; type: cell-based, human; conditions: Homo sapiens, HCT-116, 96 h, 4 days, IC50 score, read-out: 4 Day Relative Growth Inhibition (MTAP +/+; Example 277)
Outline: as §1

T1 sequence (P31153 whole entry): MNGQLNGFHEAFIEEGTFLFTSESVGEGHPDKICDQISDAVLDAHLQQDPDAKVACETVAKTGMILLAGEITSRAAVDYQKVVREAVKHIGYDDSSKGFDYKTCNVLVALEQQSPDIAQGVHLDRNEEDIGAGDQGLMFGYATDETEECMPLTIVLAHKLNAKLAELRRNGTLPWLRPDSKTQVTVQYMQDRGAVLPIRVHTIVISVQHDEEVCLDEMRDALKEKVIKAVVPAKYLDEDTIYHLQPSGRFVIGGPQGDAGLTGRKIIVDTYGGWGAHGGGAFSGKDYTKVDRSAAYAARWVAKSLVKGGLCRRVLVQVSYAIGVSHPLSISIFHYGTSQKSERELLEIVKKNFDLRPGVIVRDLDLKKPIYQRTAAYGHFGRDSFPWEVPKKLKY

| Compound | IC50 [1] | IC50 [2] | IC50 [3] | IC50 [4] |
| --- | --- | --- | --- | --- |
| O=c1c(-c2ccc(OC(F)F)cc2)c2nc(NC3CCC3)ncc2cn1-c1ccc2ncccc2c1 [Example 183, 2-(cyclobutylamino)-8-(4-(difluoromethoxy)phenyl)-6-(quinolin-6-yl)pyrido[4,3-d]pyrimidin-7(6)-one] | 100 to 10000 nM | < 100 nM | 100 to 1000 nM | > 10000 nM |
| CCNc1ncc2cn(-c3ccc(OC)cc3)c(=O)c(-c3ccc(Br)cc3)c2n1 [Example 188, 8-(4-bromophenyl)-2-(ethylamino)-6-(4-methoxyphenyl)pyrido[4,3-d]pyrimidin-7(6H)-one] | 100 to 10000 nM | < 100 nM | < 100 nM | > 10000 nM |
| COc1ccc(-n2cc3cnc(NCC(F)F)nc3c(-c3ccc(Br)cc3)c2=O)cc1 [Example 189, 8-(4-bromophenyl)-2-((2,2-difluoroethyl)amino)-6-(4-methoxyphenyl)pyrido[4,3-d]pyrimidin-7(6H)-one] | 100 to 10000 nM | < 100 nM | < 100 nM | 100 to 10000 nM |
| COc1ccc(-n2cc3cnc(NCC(F)(F)F)nc3c(-c3ccc(Br)cc3)c2=O)cc1 [Example 192, 8-(4-bromophenyl)-6-(4-methoxyphenyl)-2-((2,2,2-trifluoroethyl)amino)pyrido[4,3-d]pyrimidin-7(6H)-one] | 100 to 10000 nM | < 100 nM | < 100 nM | > 10000 nM |
| COc1ccc(-n2cc3cnc(NCC(F)(F)F)nc3c(-c3ccc(Cl)cc3)c2=O)cc1 [Example 193, 8-(4-chlorophenyl)-6-(4-methoxyphenyl)-2-((2,2,2-trifluoroethyl)amino)pyrido[4,3-d]pyrimidin-7(6H)-one] | 100 to 10000 nM | < 100 nM | 100 to 1000 nM | > 10000 nM |
| COc1ccc(-n2cc3cnc(NCC(F)(F)F)nc3c(-c3ccc(OC(F)F)cc3)c2=O)cc1 [Example 195, 8-(4-(difluoromethoxy)phenyl)-6-(4-methoxyphenyl)-2-((2,2,2-trifluoroethyl)amino)pyrido[4,3-d]pyrimidin-7(6H)-one] | < 100 nM | < 100 nM | < 100 nM | > 10000 nM |
| COc1ccc(-n2cc3cnc(NCC(F)(F)F)nc3c(-c3ccc(C4CC4)nc3)c2=O)cc1 [Example 198, 8-(6-cyclopropylpyridin-3-yl)-6-(4-methoxyphenyl)-2-((2,2,2-trifluoroethyl)amino)pyrido[4,3-d]pyrimidin-7(6)-one] | 100 to 10000 nM | < 100 nM | 100 to 1000 nM | > 10000 nM |
| COc1ccc(-c2c(=O)n(-c3ccc(OC)cc3)cc3cnc(NCC(F)(F)F)nc23)cc1 [Example 200, 6,8-bis(4-methoxyphenyl)-2-(2,2,2-trifluoroethylamino)pyrido[4,3-d]pyrimidin-7(6H)-one] | 100 to 10000 nM | < 100 nM | 100 to 1000 nM | 100 to 10000 nM |
| COc1ccc(-n2cc3cnc(NCC(F)(F)F)nc3c(-c3ccc(-c4cc[nH]n4)cc3)c2=O)cc1 [Example 202, 8-(4-(H-pyrazol-3-yl)phenyl)-6-(4-methoxyphenyl)-2-((2,2,2-trifluoroethyl)amino)pyrido[4,3-d]pyrimidin-7(6H)-one] | 100 to 10000 nM | < 100 nM | 100 to 1000 nM | > 10000 nM |
| O=c1c(-c2ccc(-c3cc[nH]n3)cc2)c2nc(NCC(F)(F)F)ncc2cn1-c1ccc2ncccc2c1 [Example 203, 8-(4-(H-pyrazol-3-yl)phenyl)-6-(quinolin-6-yl)-2-((2,2,2-trifluoroethyl)amino)pyrido[4,3-d]pyrimidin-7(6H)-one] | > 10000 nM | < 100 nM | 100 to 1000 nM | > 10000 nM |
| COc1ccc(-n2cc3cnc(NCC(F)(F)F)nc3c(-c3ccc(CCO)cc3)c2=O)cc1 [Example 205, 8-(4-(2-hydroxyethyl)phenyl)-6-(4-methoxyphenyl)-2-(2,2,2-trifluoroethylamino)pyrido[4,3-d]pyrimidin-7(6H)-one] | 100 to 10000 nM | < 100 nM | < 100 nM | > 10000 nM |
| COc1ccc(-n2cc3cnc(NCC(F)(F)F)nc3c(-c3ccc(-c4nc[nH]n4)cc3)c2=O)cc1 [Example 206, 8-(4-(H-1,2,4-triazol-3-yl)phenyl)-6-(4-methoxyphenyl)-2-(2,2,2-trifluoroethylamino)pyrido[4,3-d]pyrimidin-7(6H)-one] | 100 to 10000 nM | < 100 nM | 100 to 1000 nM | 100 to 10000 nM |

Results, then the compound that gave them:

| IC50 [1] | IC50 [2] | IC50 [3] | IC50 [4] | Compound |
| --- | --- | --- | --- | --- |
| < 100 nM | < 100 nM | < 100 nM | > 10000 nM | Cn1cc2cc(-n3cc4ccc(SCC(F)(F)F)nc4c(-c4ccc(Cl)cc4)c3=O)ccc2n1 [Example 209, 8-(4-chlorophenyl)-6-(2-methyl-2H-indazol-5-yl)-2-((2,2,2-trifluoroethyl)thio)-1,6-naphthyridin-7(6H)-one] |
| < 100 nM | < 100 nM | < 100 nM | > 10000 nM | Cn1cc2cc(-n3cc4ccc(OC5CC5)nc4c(-c4ccc(Cl)cc4)c3=O)ccc2n1 [Example 210, 8-(4-chlorophenyl)-2-cyclopropoxy-6-(2-methyl-2H-indazol-5-yl)-1,6-naphthyridin-7(6H)-one] |
| < 100 nM | < 100 nM | < 100 nM | > 10000 nM | Cn1cc2cc(-n3cc4ccc(NCC(F)(F)F)nc4c(-c4ccc(OC(F)(F)F)cc4)c3=O)ccc2n1 [Example 211, 6-(2-methyl-2H-indazol-5-yl)-2-((2,2,2-trifluoroethyl)amino)-8-(4-(trifluoromethoxy)phenyl)-1,6-naphthyridin-7(6H)-one] |
| < 100 nM | < 100 nM | < 100 nM | > 10000 nM | Cn1cc2cc(-n3cc4ccc(NCC(F)(F)F)nc4c(-c4ccc(C5CC5)nc4)c3=O)ccc2n1 [Example 212, 8-(6-cyclopropylpyridin-3-yl)-6-(2-methyl-2H-indazol-5-yl)-2-((2,2,2-trifluoroethyl)amino)-1,6-naphthyridin-7(6H)-one] |
| < 100 nM | < 100 nM | < 100 nM | > 10000 nM | Cn1cc2cc(-n3cc4ccc(NCC(F)(F)F)nc4c(-c4ccc(C(F)(F)F)cc4)c3=O)ccc2n1 [Example 213, 6-(2-methyl-2H-indazol-5-yl)-2-((2,2,2-trifluoroethyl)amino)-8-(4-(trifluoromethyl)phenyl)-1,6-naphthyridin-7(6H)-one] |
| < 100 nM | < 100 nM | < 100 nM | 100 to 10000 nM | CCOc1ccc2cn(-c3ccc4nn(C)cc4c3)c(=O)c(-c3ccc(C(F)(F)F)cc3)c2n1 [Example 215, 2-ethoxy-6-(2-methyl-2H-indazol-5-yl)-8-(4-(trifluoromethyl)phenyl)-1,6-naphthyridin-7(6H)-one] |
| < 100 nM | < 100 nM | < 100 nM | 100 to 10000 nM | CCOc1ccc2cn(-c3ccc4nn(C)cc4c3)c(=O)c(-c3ccc(C(F)F)nc3)c2n1 [Example 216, 8-(6-(difluoromethyl)pyridin-3-yl)-2-ethoxy-6-(2-methyl-2H-indazol-5-yl)-1,6-naphthyridin-7(6H)-one] |
| 100 to 10000 nM | < 100 nM | < 100 nM | > 10000 nM | CCOc1ccc2cn(-c3ccc4nn(C)cc4c3)c(=O)c(-c3ccc(OC(F)(F)F)cc3)c2n1 [Example 217, 2-ethoxy-6-(2-methyl-2H-indazol-5-yl)-8-(4-(trifluoromethoxy)phenyl)-1,6-naphthyridin-7(6H)-one] |
